These results are taken from US6506772B1, “Substituted [1,2,4]triazolo[1,5a]pyridine derivatives with activity as adenosine receptor ligands” (Hoffmann-La Roche Inc., priority 2000, dated 2003).

The target in one experiment is T1, HA1 adenosine receptor (Homo sapiens, UniProt P30542).
T1 sequence (P30542 1-326): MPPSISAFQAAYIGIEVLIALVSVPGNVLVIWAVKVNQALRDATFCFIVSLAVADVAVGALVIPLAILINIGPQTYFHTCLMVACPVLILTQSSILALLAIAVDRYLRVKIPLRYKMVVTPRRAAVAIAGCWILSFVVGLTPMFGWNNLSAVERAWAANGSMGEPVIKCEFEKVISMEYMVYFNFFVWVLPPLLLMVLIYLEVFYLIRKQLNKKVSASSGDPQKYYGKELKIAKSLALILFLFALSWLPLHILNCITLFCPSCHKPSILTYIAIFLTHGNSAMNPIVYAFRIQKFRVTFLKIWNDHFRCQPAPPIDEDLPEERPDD
The experiment is described as follows: Human adenosine A1 receptor affinity (Ki hA1). The note with it: affinity to human adenosine A1 receptor. The experiment is classed as binding.

Experiment [1] concerns the target T2, human adenosine A2A receptor (Homo sapiens, UniProt P29274).
T2 construct: expressed in transfected cells; host or cells: CHO cells, Semliki Forest virus expression system; membrane preparation
The experiment is described as follows: Human adenosine A2A receptor [3H]-SCH-58261 binding assay. The note with it: for Ki: affinity to human adenosine A2A receptor, read-out: Ki HA2A; for selectivity (A1/A2a): calculated ratio of the affinity to the HA1 receptor to the HA2a receptor. The method, then: Human Adenosine A2A Receptor
The human adenosine A2A receptor was recombinantly expressed in chinese hamster ovary (CHO) cells using the semliki forest virus expression system. Cells were harvested, washed twice by centrifugation, homogenized and again washed by centrifugation. The final washed membrane pellet was suspended in a Tris (50 mM) buffer containing 120 mM NaCl, 5 mM KCl, 2 mM CaCl2 and 10 MM MgCl2 (pH 7.4) (buffer A). […] Compounds were tested at 10 concentrations from 10 μM-0.3 nM. All assays were conducted in duplicate and repeated at least two times. Assay plates were incubated for 1 hour at room temperature before centrifugation and then bound ligand determined using a Packard Topcount scintillation counter. IC50 values were calculated using a non-linear curve fitting program and Ki values calculated using the Cheng-Prussoff equation.

T2 sequence (P29274 whole entry): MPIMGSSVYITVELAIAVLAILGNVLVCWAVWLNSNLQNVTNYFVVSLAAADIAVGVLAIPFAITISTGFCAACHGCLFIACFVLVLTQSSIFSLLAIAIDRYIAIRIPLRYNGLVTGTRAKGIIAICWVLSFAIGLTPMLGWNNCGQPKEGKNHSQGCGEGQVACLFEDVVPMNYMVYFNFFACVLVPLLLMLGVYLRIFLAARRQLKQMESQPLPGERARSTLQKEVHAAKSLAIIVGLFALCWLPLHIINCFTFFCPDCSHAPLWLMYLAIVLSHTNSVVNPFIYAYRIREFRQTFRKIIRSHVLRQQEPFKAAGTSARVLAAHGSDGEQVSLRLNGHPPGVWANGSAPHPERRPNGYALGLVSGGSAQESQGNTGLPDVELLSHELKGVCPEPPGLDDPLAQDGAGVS

On to `Nc1cc(C(=O)NCCc2ccccc2F)cc2nc(-c3ccccn3)nn12` [Example 40, 5-Amino-2-pyridin-2-yl-[1,2,4]triazolo[1,5-a]pyridine-7-carboxylic acid [2-(2-fluoro-phenyl)-ethyl]-amide], for which, on HA1 adenosine receptor, the Ki was 204 nM. In experiment [1], the Ki worked out at 49.9 nM and the “selectivity (A1/A2a)” value is 4.1.

As to `COc1ccccc1CNC(=O)c1cc(N)n2nc(-c3ccccn3)nc2c1` [Example 41, 5-Amino-2-pyridin-2-yl-[1,2,4]triazolo[1,5-a]pyridine-7-carboxylic acid 2-methoxy-benzylamide], the Ki at HA1 adenosine receptor turned out to be 88.1 nM; in experiment [1], 21.8 nM. In addition, in experiment [1], the “selectivity (A1/A2a)” value is reported as 4.0.

Compound `Nc1cc(C(=O)NCc2ccc(F)cc2)cc2nc(-c3ccccn3)nn12` [Example 43, 5-Amino-2-pyridin-2-yl-[1,2,4]triazolo[1,5-a]pyridine-7-carboxylic acid 4-fluoro-benzylamide] displayed an inhibition constant (Ki) at HA1 adenosine receptor of 203 nM. For the same compound, in experiment [1], the inhibition constant (Ki) was found to be 87.7 nM and the “selectivity (A1/A2a)” value was 2.3.

`CC(NC(=O)c1cc(N)n2nc(-c3ccccn3)nc2c1)c1ccccc1` (stereo not drawn) [Example 44, 5-Amino-2-pyridin-2-yl-[1,2,4]triazolo[1,5-a]pyridine-7-carboxylic acid (1-phenyl-ethyl)-amide]: the affinity at HA1 adenosine receptor corresponds to a Ki of 120 nM. In experiment [1], the Ki came out at 44.5 nM and the “selectivity (A1/A2a)” value was 2.7.

The compound `COc1ccccc1CCNC(=O)c1cc(N)n2nc(-c3ccccn3)nc2c1` [Example 45, 5-Amino-2-pyridin-2-yl-[1,2,4]triazolo[1,5-a]pyridine-7-carboxylic acid [2-(2-methoxy-phenyl)-ethyl]-amide] registered an inhibition constant Ki at HA1 adenosine receptor of 128 nM. For the same compound, in experiment [1], the inhibitory constant (Ki) came out at 53.5 nM and the “selectivity (A1/A2a)” value is listed as 2.4.

On to `Nc1cc(C(=O)NCc2ccccc2)cc2nc(-c3ccccn3)nn12` [Example 46, 5-Amino-2-pyridin-2-yl-[1,2,4]triazolo[1,5-a]pyridine-7-carboxylic acid benzylamide], for which the Ki on HA1 adenosine receptor was 184 nM. In experiment [1], the Ki was 61.1 nM and the “selectivity (A1/A2a)” value is 3.0.

For the compound `CCCCCCNC(=O)c1cc(N)n2nc(-c3ccccn3)nc2c1` [Example 47, 5-Amino-2-pyridin-2-yl-[1,2,4]triazolo[1,5-a]pyridine-7-carboxylic acid hexylamide], the Ki on HA1 adenosine receptor worked out at 316 nM; in experiment [1] it was 37.5 nM. Moreover, in experiment [1], the “selectivity (A1/A2a)” value is listed as 8.4.

In the case of `Nc1cc(C(=O)NC2CCCCC2)cc2nc(-c3ccccn3)nn12` [Example 48, 5-Amino-2-pyridin-2-yl-[1,2,4]triazolo[1,5-a]pyridine-7-carboxylic acid cyclohexylamide], the inhibitory constant (Ki) on HA1 adenosine receptor turned out to be 366 nM. In experiment [1], the Ki was found to be 62.1 nM and the “selectivity (A1/A2a)” value is on record as 5.9.

The compound `CCCCNC(=O)c1cc(N)n2nc(-c3ccccn3)nc2c1` [Example 49, 5-Amino-2-pyridin-2-yl-[1,2,4]triazolo[1,5-a]pyridine-7-carboxylic acid butylamide] had a Ki at HA1 adenosine receptor of 242 nM. In experiment [1], the Ki stood at 34.3 nM and the “selectivity (A1/A2a)” value is recorded as 7.1.

As for `Nc1cc(C(=O)NCCc2ccccc2Cl)cc2nc(-c3ccccn3)nn12` [Example 50, 5-Amino-2-pyridin-2-yl-[1,2,4]triazolo[1,5-a]pyridine-7-carboxylic acid [2-(2-chloro-phenyl)-ethyl]-amide], the inhibitory constant (Ki) at HA1 adenosine receptor was found to be 123 nM; in experiment [1] it was 119 nM. Also, in experiment [1], the “selectivity (A1/A2a)” value was 1.0.

In the case of `COc1ccc(-c2nc3cc(C(=O)N(Cc4ccccc4)Cc4ccccc4)cc(N)n3n2)s1` [Example 51, 5-Amino-2-(5-methoxy-thiophen-2-yl)-[1,2,4]triazolo[1,5-a]pyridine-7-carboxylic acid dibenzylamide], at HA1 adenosine receptor, the Ki came to 129 nM. For the same compound, in experiment [1], the inhibition constant (Ki) was 22.2 nM and the “selectivity (A1/A2a)” value is listed as 5.8.

Turning to `COc1ccc(-c2nc3cc(C(=O)NCc4ccccc4Br)cc(N)n3n2)s1` [Example 52, 5-Amino-2-(5-methoxy-thiophen-2-yl)-[1,2,4]triazolo[1,5-a]pyridine-7-carboxylic acid 2-bromo-benzylamide], the Ki at HA1 adenosine receptor was 85.7 nM. Moreover, in experiment [1], the Ki is 108 nM and the “selectivity (A1/A2a)” value is reported as 0.8.

On to `COc1ccc(-c2nc3cc(C(=O)N(Cc4ccccc4)C(C)C)cc(N)n3n2)s1` [Example 55, 5-Amino-2-(5-methoxy-thiophen-2-yl)-[1,2,4]triazolo[1,5-a]pyridine-7-carboxylic acid benzyl-isopropyl-amide], for which the inhibitory constant (Ki) on HA1 adenosine receptor amounted to 76.4 nM; in experiment [1], 28.3 nM. Also, the “selectivity (A1/A2a)” value in experiment [1] is on record as 2.7.

Turning to `COc1ccc(-c2nc3cc(C(=O)NCc4ccccc4Cl)cc(N)n3n2)s1` [Example 56, 5-Amino-2-(5-methoxy-thiophen-2-yl)-[1,2,4]triazolo[1,5-a]pyridine-7-carboxylic acid 2-chloro-benzylamide], the affinity at HA1 adenosine receptor corresponds to a Ki of 86.3 nM. Moreover, in experiment [1], the Ki turned out to be 82 nM and the “selectivity (A1/A2a)” value is listed as 1.1.

Turning to `COc1ccc(-c2nc3cc(C(=O)NCc4ccccc4OC)cc(N)n3n2)s1` [Example 58, 5-Amino-2-(5-methoxy-thiophen-2-yl)-[1,2,4]triazolo[1,5-a]pyridine-7-carboxylic acid 2-methoxy-benzylamide], the results for the Ki (on HA1 adenosine receptor; in experiment [1]) were 52.7 nM and 71.9 nM, respectively. Also, the “selectivity (A1/A2a)” value in experiment [1] is reported as 0.7.

On to `CCN(Cc1ccccc1)C(=O)c1cc(N)n2nc(-c3ccc(OC)s3)nc2c1` [Example 59, 5-Amino-2-(5-methoxy-thiophen-2-yl)-[1,2,4]triazolo[1,5-a]pyridine-7-carboxylic acid benzyl-ethyl-amide], for which, on HA1 adenosine receptor, the Ki amounted to 106 nM. For the same compound, in experiment [1], the Ki was found to be 42.9 nM and the “selectivity (A1/A2a)” value was 2.5.

In the case of `COc1ccc(-c2nc3cc(C(=O)NCc4ccccc4)cc(N)n3n2)s1` [Example 62, 5-Amino-2-(5-methoxy-thiophen-2-yl)-[1,2,4]triazolo[1,5-a]pyridine-7-carboxylic acid benzylamide], the values for the inhibition constant (Ki) (on HA1 adenosine receptor; in experiment [1]) were 113 nM and 176 nM, respectively. Further, the “selectivity (A1/A2a)” value in experiment [1] is on record as 0.6.

At HA1 adenosine receptor, `CCCCCCNC(=O)c1cc(N)n2nc(-c3ccc(OC)s3)nc2c1` [Example 63, 5-Amino-2-(5-methoxy-thiophen-2-yl)-[1,2,4]triazolo[1,5-a]pyridine-7-carboxylic acid hexylamide] came in with a Ki of 247 nM. In experiment [1], the Ki is 181 nM and the “selectivity (A1/A2a)” value is listed as 1.4.

For `COc1ccc(-c2nc3cc(C(=O)NC4CCCCC4)cc(N)n3n2)s1` [Example 64, 5-Amino-2-(5-methoxy-thiophen-2-yl)-[1,2,4]triazolo[1,5-a]pyridine-7-carboxylic acid cyclohexylamide], the affinity at HA1 adenosine receptor, expressed as Ki, was 223 nM. In addition, in experiment [1], the Ki is 227 nM and the “selectivity (A1/A2a)” value is given as 1.0.

Regarding `CCN(C(=O)c1cc(N)n2nc(-c3ccc(OC)s3)nc2c1)C(C)C` [Example 65, 5-Amino-2-(5-methoxy-thiophen-2-yl)-[1,2,4]triazolo[1,5-a]pyridine-7-carboxylic acid ethyl-isopropyl-amide], the inhibitory constant (Ki) turned out to be 211 nM at HA1 adenosine receptor and 51.5 nM in experiment [1]. Further, the “selectivity (A1/A2a)” value in experiment [1] is listed as 4.1.

In the case of `COc1ccc(-c2nc3cc(C(=O)N4CCCCC4)cc(N)n3n2)s1` [Example 66, [5-Amino-2-(5-methoxy-thiophen-2-yl)-[1,2,4]triazolo[1,5-a]pyridin-7-yl]-piperidin-1-yl-methanone], the inhibitory constant (Ki) turned out to be 623 nM on HA1 adenosine receptor and 174 nM in experiment [1]. The “selectivity (A1/A2a)” value in experiment [1] is recorded as 3.6.

For `CCCCNC(=O)c1cc(N)n2nc(-c3ccc(OC)s3)nc2c1` [Example 67, 5-Amino-2-(5-methoxy-thiophen-2-yl)-[1,2,4]triazolo[1,5-a]pyridine-7-carboxylic acid butylamide], the figures for the inhibitory constant (Ki) (on HA1 adenosine receptor; in experiment [1]) were 136 nM and 99.1 nM, respectively. Besides, the “selectivity (A1/A2a)” value in experiment [1] is on record as 1.4.

As to `CCN(CC)C(=O)c1cc(N)n2nc(-c3ccc(OC)s3)nc2c1` [Example 68, 5-Amino-2-(5-methoxy-thiophen-2-yl)-[1,2,4]triazolo[1,5-a]pyridine-7-carboxylic acid diethylamide], the Ki worked out at 717 nM at HA1 adenosine receptor and 171 nM in experiment [1]. Besides, the “selectivity (A1/A2a)” value in experiment [1] is 4.2.

As to `COc1ccc(-c2nc3cc(C(=O)NC4CCC4)cc(N)n3n2)s1` [Example 70, 5-Amino-2-(5-methoxy-thiophen-2-yl)-[1,2,4]triazolo[1,5-a]pyridine-7-carboxylic acid cyclobutylamide], affinity at HA1 adenosine receptor was put at a Ki of 148 nM. For the same compound, in experiment [1], the inhibition constant (Ki) was determined as 113 nM and the “selectivity (A1/A2a)” value is 1.3.

As to `CCCNC(=O)c1cc(N)n2nc(-c3ccc(OC)s3)nc2c1` [Example 71, 5-Amino-2-(5-methoxy-thiophen-2-yl)-[1,2,4]triazolo[1,5-a]pyridine-7-carboxylic acid propylamide], at HA1 adenosine receptor, affinity was put at a Ki of 180 nM. In addition, in experiment [1], the Ki was determined as 64.9 nM and the “selectivity (A1/A2a)” value is reported as 2.8.

The Ki is the equilibrium dissociation constant of an inhibitor or competing ligand from its target.
